Test results from article PMC11513923, “Discovery of ZLC491 as a Potent, Selective, and Orally Bioavailable CDK12/13 PROTAC Degrader” (Journal of Medicinal Chemistry, 2024).

Tests used:
CDK13 = biological target: T1, CDK13 (Homo sapiens, UniProt Q14004); assay: CDK13 degradation in MDA-MB-231 cells by immunoblotting; assay type: cell-based; conditions: 0.3 μM; for Protein Degradation (%DMSO control, 0.3 μM) CDK13: MDA-MB-231 cells, 15 h, immunoblotting, normalized against α-tubulin; for Degradation rates of CDK13 at 0.3 μM: supplementary CSV;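 on Protein Degradation (%DMSO control, 0.3 μM) CDK13: percent of CDK13 protein degraded relative to DMSO control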
T1 construct: Immunoblotting of CDK12 and CDK13 in MDA-MB-231 cells treated with increasing concentrations of ZLC491 for 15 h; endogenous in cells; host or cells: MDA-MB-231
T1 sequence (Q14004 whole entry): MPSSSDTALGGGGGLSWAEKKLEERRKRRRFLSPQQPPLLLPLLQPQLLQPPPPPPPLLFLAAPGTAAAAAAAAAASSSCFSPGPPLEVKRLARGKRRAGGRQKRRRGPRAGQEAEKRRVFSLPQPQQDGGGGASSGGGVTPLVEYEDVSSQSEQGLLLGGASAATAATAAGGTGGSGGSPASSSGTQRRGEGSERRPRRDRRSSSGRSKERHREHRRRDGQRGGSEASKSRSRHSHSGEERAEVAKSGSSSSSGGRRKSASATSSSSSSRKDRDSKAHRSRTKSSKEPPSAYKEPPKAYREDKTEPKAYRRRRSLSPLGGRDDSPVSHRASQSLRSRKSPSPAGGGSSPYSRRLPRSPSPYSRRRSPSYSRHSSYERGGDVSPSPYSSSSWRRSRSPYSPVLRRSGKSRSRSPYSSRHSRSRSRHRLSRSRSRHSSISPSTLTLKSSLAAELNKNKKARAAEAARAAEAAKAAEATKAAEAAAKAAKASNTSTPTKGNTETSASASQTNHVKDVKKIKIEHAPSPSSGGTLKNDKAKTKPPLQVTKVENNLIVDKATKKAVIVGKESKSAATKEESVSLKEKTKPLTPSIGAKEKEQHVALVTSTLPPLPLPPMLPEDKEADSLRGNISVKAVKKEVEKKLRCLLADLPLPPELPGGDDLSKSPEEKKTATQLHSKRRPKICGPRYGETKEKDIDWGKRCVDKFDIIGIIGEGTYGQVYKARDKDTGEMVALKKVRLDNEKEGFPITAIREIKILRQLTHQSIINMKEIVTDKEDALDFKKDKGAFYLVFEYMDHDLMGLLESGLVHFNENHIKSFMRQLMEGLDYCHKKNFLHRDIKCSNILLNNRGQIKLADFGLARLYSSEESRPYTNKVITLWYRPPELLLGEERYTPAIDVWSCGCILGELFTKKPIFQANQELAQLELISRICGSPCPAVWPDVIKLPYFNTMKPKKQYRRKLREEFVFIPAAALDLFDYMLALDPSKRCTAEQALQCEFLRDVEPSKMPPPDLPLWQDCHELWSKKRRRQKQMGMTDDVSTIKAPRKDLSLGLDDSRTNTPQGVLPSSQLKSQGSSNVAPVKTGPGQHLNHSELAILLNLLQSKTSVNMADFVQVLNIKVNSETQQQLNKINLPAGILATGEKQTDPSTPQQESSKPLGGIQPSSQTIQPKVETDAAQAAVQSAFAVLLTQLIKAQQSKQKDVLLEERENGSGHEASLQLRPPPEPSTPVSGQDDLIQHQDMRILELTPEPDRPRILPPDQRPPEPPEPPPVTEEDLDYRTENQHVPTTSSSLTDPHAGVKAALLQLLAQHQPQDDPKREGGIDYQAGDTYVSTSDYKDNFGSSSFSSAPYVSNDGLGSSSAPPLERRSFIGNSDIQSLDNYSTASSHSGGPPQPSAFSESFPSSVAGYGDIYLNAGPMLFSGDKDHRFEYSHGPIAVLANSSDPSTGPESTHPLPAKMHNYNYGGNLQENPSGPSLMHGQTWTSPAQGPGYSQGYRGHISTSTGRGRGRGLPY
T1 sequence (O75909 whole entry partner): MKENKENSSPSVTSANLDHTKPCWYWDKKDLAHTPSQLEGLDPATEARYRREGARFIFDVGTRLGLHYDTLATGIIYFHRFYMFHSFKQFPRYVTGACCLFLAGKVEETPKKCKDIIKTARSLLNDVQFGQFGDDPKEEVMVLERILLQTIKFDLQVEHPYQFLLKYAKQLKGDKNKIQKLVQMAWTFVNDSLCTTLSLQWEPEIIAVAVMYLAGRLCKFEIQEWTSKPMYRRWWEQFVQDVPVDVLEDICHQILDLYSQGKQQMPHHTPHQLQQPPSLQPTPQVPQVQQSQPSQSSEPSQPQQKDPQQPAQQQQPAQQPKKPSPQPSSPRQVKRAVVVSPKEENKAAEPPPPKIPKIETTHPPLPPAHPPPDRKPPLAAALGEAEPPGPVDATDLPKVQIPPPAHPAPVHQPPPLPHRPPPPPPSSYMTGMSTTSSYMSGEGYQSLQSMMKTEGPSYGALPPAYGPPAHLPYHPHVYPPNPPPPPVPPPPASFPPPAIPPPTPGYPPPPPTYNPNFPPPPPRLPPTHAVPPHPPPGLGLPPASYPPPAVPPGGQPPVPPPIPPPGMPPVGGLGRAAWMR
Method: (§1) The degradation efficiency of the new molecules was assessed by immunoblotting after treatment with the compounds at 0.3 μM in MD-MBA-231 cells for 15 h.
(§2) To further characterize the compound, we determined the half-degradation concentration (DC50) values of ZLC491 in MDA-MB-231 cells. […] We also treated MDA-MB-231 cells with 1 μM ZLC491 at various time points.
(§3) (A) Immunoblotting of CDK12 and CDK13 in MDA-MB-231 cells treated with increasing concentrations of ZLC491 for 15 h (left). Percent remaining CDK12 and CDK13 proteins were plotted for DC50 determination (right). Protein levels were quantified using ImageJ and normalized to corresponding α-tubulin, then plotted using Graphpad Prism 8.0. The data were representative of three independent experiments; (B) immunoblotting of CDK12 and CDK13 proteins in MDA-MB-231 cells treated with ZLC491 for various time points; immunoblotting of CDK12 and CDK13 in HCC38 (C) and MDA-MB-436 (D) cells treated with increasing concentrations of ZLC491 for 15 h. α-Tubulin was used as a loading control. TEXT PRINTED IN THE PICTURE: (A) ZLC491: MDA-MB-231: CDK12 DC50 = 0.032μM; MDA-MB-231: CDK13 DC50 = 0.028μM DOUBTS OF THE COPYIST ABOUT THIS PICTURE: ZLC491, CDK12 DC50: 0.032 read from small print, the digits 3 and 2 are uncertain / ZLC491, CDK13 DC50: 0.028 read from small print, the last digit may be 8, 6 or 3
(§4) Generally, the tested cells were washed by ice-cold PBS buffer (Gibco) and lysed with an SDS lysis buffer (62.5 mM Tris, 2% w/v SDS, 10 glycerol, 50 mM DTT, 0.01% w/v bromophenol blue) on ice, after which the protein lysate samples were collected to 1.5 mL microcentrifuge tubes and treated with ultrasonic for 10 s, following with a 100 °C incubation for 10 min and a 4 °C centrifugation of 12000 rpm for 10 min. An equal amount of protein was loaded to 4–8% Bis-Tris gels and underwent an SDS-PAGE electrophoresis at 55V for 30 min and 95V for 90 min. Proteins on gels were then transferred to a polyvinylidene difluoride (PVDF) membrane (Bio-Rad) with a wet electro transfer system (Bio-Rad). The PVDF membrane was cut into bands and incubated in a blocking reagent (5% defatted milk powder dissolved in TBST) at room temperature for 1–2 h. Incubate membrane and primary antibody (at the appropriate dilution and diluent as recommended in the product webpage) at 4 °C for 12–14 h, followed with three times washes by TBST. The washed membranes were incubated in a secondary antibody solution (HRP-linked antirabbit IgG or antimouse IgG (CST), 1:2000 diluted into TBST) at room temperature for 2 h. Membranes were photographed in Amersham Imager 800 system using StarSignal plus regent (GenStar) or Omni-ECL reagent (EpiZyme). Compounds MG132, MLN4924, Bafilomycin A1 and pomalidomide were purchased from MedChemExpress (MCE) LLC.

CDK12 = CDK12 (Homo sapiens, UniProt Q9NYV4); assay: CDK12 degradation in MDA-MB-231 cells by immunoblotting; assay type: cell-based; design: Immunoblotting of CDK12 and CDK13 in MDA-MB-231 cells treated with increasing concentrations of ZLC491 for 15 h; endogenous in cells; host or cells: MDA-MB-231; conditions: 0.3 μM; for Protein Degradation (%DMSO control, 0.3 μM) CDK12: MDA-MB-231 cells, 15 h, immunoblotting, normalized against α-tubulin; for Degradation rates of CDK12 at 0.3 μM: supplementary CSV
Chain of CDK12 (Q9NYV4 whole entry): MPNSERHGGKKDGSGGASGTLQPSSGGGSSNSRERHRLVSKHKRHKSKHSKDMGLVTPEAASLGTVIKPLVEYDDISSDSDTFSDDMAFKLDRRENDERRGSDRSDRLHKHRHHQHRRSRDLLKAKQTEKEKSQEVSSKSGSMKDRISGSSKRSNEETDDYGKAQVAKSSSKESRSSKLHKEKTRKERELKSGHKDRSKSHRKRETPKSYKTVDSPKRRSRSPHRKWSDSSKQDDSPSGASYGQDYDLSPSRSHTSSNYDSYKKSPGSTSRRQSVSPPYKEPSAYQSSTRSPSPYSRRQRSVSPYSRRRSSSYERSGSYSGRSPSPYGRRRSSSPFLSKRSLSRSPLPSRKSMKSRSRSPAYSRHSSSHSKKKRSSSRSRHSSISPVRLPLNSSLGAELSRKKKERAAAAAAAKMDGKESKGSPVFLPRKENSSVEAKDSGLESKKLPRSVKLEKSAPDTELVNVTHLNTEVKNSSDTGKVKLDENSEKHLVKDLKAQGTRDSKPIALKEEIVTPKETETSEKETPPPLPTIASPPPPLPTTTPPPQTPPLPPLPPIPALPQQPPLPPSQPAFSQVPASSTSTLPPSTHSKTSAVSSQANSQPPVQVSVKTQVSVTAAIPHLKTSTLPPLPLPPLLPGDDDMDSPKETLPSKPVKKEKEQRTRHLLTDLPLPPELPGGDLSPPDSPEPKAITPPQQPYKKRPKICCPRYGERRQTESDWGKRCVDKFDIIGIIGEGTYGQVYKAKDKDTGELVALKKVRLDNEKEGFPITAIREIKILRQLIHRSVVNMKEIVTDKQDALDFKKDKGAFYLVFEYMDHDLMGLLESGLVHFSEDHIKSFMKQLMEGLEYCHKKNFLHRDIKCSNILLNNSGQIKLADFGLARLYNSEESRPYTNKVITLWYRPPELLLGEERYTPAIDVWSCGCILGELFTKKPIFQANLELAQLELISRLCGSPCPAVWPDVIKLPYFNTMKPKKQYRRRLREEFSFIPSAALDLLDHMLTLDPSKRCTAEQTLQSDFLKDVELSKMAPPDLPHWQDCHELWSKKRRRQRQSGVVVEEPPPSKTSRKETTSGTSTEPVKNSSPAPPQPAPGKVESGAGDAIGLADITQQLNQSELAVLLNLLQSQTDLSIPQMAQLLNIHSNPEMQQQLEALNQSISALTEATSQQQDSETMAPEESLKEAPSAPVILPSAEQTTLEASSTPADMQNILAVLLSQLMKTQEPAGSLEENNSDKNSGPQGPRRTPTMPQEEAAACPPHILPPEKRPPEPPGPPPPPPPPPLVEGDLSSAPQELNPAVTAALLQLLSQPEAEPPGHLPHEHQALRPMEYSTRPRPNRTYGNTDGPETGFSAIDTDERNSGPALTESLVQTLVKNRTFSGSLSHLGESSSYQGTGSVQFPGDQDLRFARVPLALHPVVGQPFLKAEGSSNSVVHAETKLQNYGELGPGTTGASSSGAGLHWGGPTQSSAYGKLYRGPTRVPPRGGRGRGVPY
Chain of CDK12 (O75909 whole entry partner): as the sequence (O75909 whole entry partner) above
Method: as §1, §2, §3, §4

Compound	Protein Degradation (%DMSO control, 0.3 μM) CDK13 (CDK13) [%]	Degradation rates of CDK13 at 0.3 μM (CDK13) [%]	Protein Degradation (%DMSO control, 0.3 μM) CDK12 (CDK12) [%]	Degradation rates of CDK12 at 0.3 μM (CDK12) [%]
N#Cc1ccc(N[C@H]2CC[C@H](N(C(=O)NCc3ccccc3)c3ccc(N4CCN(C(=O)C5CN(c6ccc7c(c6)C(=O)N(C6CCC(=O)NC6=O)C7=O)C5)CC4)cc3)CC2)nc1 (some centres unmarked) [4a, 3-Benzyl-1-((1r,4r)-4-((5-cyanopyridin-2-yl)amino)cyclohexyl)-1-(4-(4-(1-(2-(2,6-dioxopiperidin-3-yl)-1,3-dioxoisoindolin-5-yl)azetidine-3-carbonyl)piperazin-1-yl)phenyl)urea]	38	38	35	35
N#Cc1ccc(N[C@H]2CC[C@H](N(C(=O)NCc3ccccc3)c3ccc(N4CCN(C(=O)C5CCN(c6ccc7c(c6)C(=O)N(C6CCC(=O)NC6=O)C7=O)C5)CC4)cc3)CC2)nc1 (some centres unmarked) [4b, 3-Benzyl-1-((1r,4r)-4-((5-cyanopyridin-2-yl)amino)cyclohexyl)-1-(4-(4-(1-(2-(2,6-dioxopiperidin-3-yl)-1,3-dioxoisoindolin-5-yl)pyrrolidine-3-carbonyl)piperazin-1-yl)phenyl)urea]	65	65	61	61
N#Cc1ccc(N[C@H]2CC[C@H](N(C(=O)NCc3ccccc3)c3ccc(N4CCN(C(=O)C5CCN(c6ccc7c(c6)C(=O)N(C6CCC(=O)NC6=O)C7=O)CC5)CC4)cc3)CC2)nc1 (some centres unmarked) [4c, 3-Benzyl-1-((1r,4r)-4-((5-cyanopyridin-2-yl)amino)cyclohexyl)-1-(4-(4-(1-(2-(2,6-dioxopiperidin-3-yl)-1,3-dioxoisoindolin-5-yl)piperidine-4-carbonyl)piperazin-1-yl)phenyl)urea]	51	51	38	38
N#Cc1ccc(N[C@H]2CC[C@H](N(C(=O)NCc3ccccc3)c3ccc(N4CCN(CC5CN(c6ccc7c(c6)C(=O)N(C6CCC(=O)NC6=O)C7=O)C5)CC4)cc3)CC2)nc1 (some centres unmarked) [4d, 3-Benzyl-1-((1r,4r)-4-((5-cyanopyridin-2-yl)amino)cyclohexyl)-1-(4-(4-((1-(2-(2,6-dioxopiperidin-3-yl)-1,3-dioxoisoindolin-5-yl)azetidin-3-yl)methyl)piperazin-1-yl)phenyl)urea]	71	71	60	60
N#Cc1ccc(N[C@H]2CC[C@H](N(C(=O)NCc3ccccc3)c3ccc(N4CCN(C[C@@H]5CCN(c6ccc7c(c6)C(=O)N(C6CCC(=O)NC6=O)C7=O)C5)CC4)cc3)CC2)nc1 (stereo partly drawn) [4e, 3-Benzyl-1-((1r,4s)-4-((5-cyanopyridin-2-yl)amino)cyclohexyl)-1-(4-(4-(((3S)-1-(2-(2,6-dioxopiperidin-3-yl)-1,3-dioxoisoindolin-5-yl)pyrrolidin-3-yl)methyl)piperazin-1-yl)phenyl)urea]	70	70	50	50
N#Cc1ccc(N[C@H]2CC[C@H](N(C(=O)NCc3ccccc3)c3ccc(N4CCN(C[C@H]5CCN(c6ccc7c(c6)C(=O)N(C6CCC(=O)NC6=O)C7=O)C5)CC4)cc3)CC2)nc1 (stereo partly drawn) [4f, 3-Benzyl-1-((1r,4r)-4-((5-cyanopyridin-2-yl)amino)cyclohexyl)-1-(4-(4-(((3R)-1-(2-(2,6-dioxopiperidin-3-yl)-1,3-dioxoisoindolin-5-yl)pyrrolidin-3-yl)methyl)piperazin-1-yl)phenyl)urea]	64	64	59	59
N#Cc1ccc(N[C@H]2CC[C@H](N(C(=O)NCc3ccccc3)c3ccc(N4CCN(CC5CCN(c6ccc7c(c6)C(=O)N(C6CCC(=O)NC6=O)C7=O)CC5)CC4)cc3)CC2)nc1 (some centres unmarked) [4g, 3-Benzyl-1-((1r,4r)-4-((5-cyanopyridin-2-yl)amino)cyclohexyl)-1-(4-(4-((1-(2-(2,6-dioxopiperidin-3-yl)-1,3-dioxoisoindolin-5-yl)piperidin-4-yl)methyl)piperazin-1-yl)phenyl)urea]	84	84	74	74
N#Cc1ccc(N[C@H]2CC[C@H](N(C(=O)NCc3ccccc3)c3ccc(N4CCN(CC5CCN(c6cc7c(cc6F)C(=O)N(C6CCC(=O)NC6=O)C7=O)CC5)CC4)cc3)CC2)nc1 (some centres unmarked) [4g-F, 3-Benzyl-1-((1r,4r)-4-((5-cyanopyridin-2-yl)amino)cyclohexyl)-1-(4-(4-((1-(2-(2,6-dioxopiperidin-3-yl)-6-fluoro-1,3-dioxoisoindolin-5-yl)piperidin-4-yl)methyl)piperazin-1-yl)phenyl)urea]	57	57	53	53
N#Cc1ccc(N[C@H]2CC[C@H](N(C(=O)NCc3ccccc3)c3ccc(N4CC(CN5CCN(c6ccc7c(c6)C(=O)N(C6CCC(=O)NC6=O)C7=O)CC5)C4)cc3)CC2)nc1 (some centres unmarked) [4h, 3-Benzyl-1-((1r,4r)-4-((5-cyanopyridin-2-yl)amino)cyclohexyl)-1-(4-(3-((4-(2-(2,6-dioxopiperidin-3-yl)-1,3-dioxoisoindolin-5-yl)piperazin-1-yl)methyl)azetidin-1-yl)phenyl)urea]	61	61	37	37
N#Cc1ccc(N[C@H]2CC[C@H](N(C(=O)NCc3ccccc3)c3ccc(N4CCC(CN5CCN(c6ccc7c(c6)C(=O)N(C6CCC(=O)NC6=O)C7=O)CC5)C4)cc3)CC2)nc1 (some centres unmarked) [4i, 3-Benzyl-1-((1r,4r)-4-((5-cyanopyridin-2-yl)amino)cyclohexyl)-1-(4-(3-((4-(2-(2,6-dioxopiperidin-3-yl)-1,3-dioxoisoindolin-5-yl)piperazin-1-yl)methyl)pyrrolidin-1-yl)phenyl)urea]	16	16	28	28
N#Cc1ccc(N[C@H]2CC[C@H](N(C(=O)NCc3ccccc3)c3ccc(N4CCC(CN5CCN(c6ccc7c(c6)C(=O)N(C6CCC(=O)NC6=O)C7=O)CC5)CC4)cc3)CC2)nc1 (some centres unmarked) [4j, 3-Benzyl-1-((1r,4r)-4-((5-cyanopyridin-2-yl)amino)cyclohexyl)-1-(4-(4-((4-(2-(2,6-dioxopiperidin-3-yl)-1,3-dioxoisoindolin-5-yl)piperazin-1-yl)methyl)piperidin-1-yl)phenyl)urea]	71	71	49	49
